The values that follow come from PMC6029275, “Cytotoxic properties of the anthraquinone derivatives isolated from the roots of Rubia philippinensis” (BMC Complementary and Alternative Medicine, 2018).

Common to all, as to assay type: cell-based
In experiment [1] the test system is MCF7 (human breast adenocarcinoma). As to the kind of experiment: MTT cytotoxicity assay, MCF7. Particulars: for IC50: MTT, 24 h treatment, mean ± SD; for Selectivity index MCF7 (column head IC50 (μM)): ratio of IC50 on MDCK cells to IC50 in MCF7. The method, then:
(§1) The potential cytotoxicity of the isolated anthraquinone derivatives was studied against various cancer cell lines, including SK-MEL-5 (human melanoma), B16F10 (murine melanoma) MCF7 (human breast adenocarcinoma), and MDA-MB-231 (human breast adenocarcinoma) and the normal cell line MDCK (normal kidney epithelial) using the MTT assay. All cell lines were cultured in DMEM medium supplemented with 10% foetal bovine serum (FBS) and streptomycin–penicillin (100 μg/ml each; Hyclone) in a 5% CO2 humidified incubator. An MTT assay was employed to determine the percentage of the viability of various cancer cells as well as MDCK cells. All cells were first cultured in 96-well plates (1 × 10^5 cells/mL for all cancerous cells and 5 × 10^5 cells/mL for MDCK cells) for 24 h, and treated with indicated concentration of isolated compounds (6.25–100 μM for cancerous cells and 6.25–400 μM for MDCK cells). Various dilutions of stock culture were made in the culture medium to get the final concentration of the sample with a 0.1% of DMSO concentration, including the control. After 24 h incubation, MTT reagent was added to each well and the plate was incubated at 37 °C for 1 h. After removing the medium, the plate was washed twice with PBS (pH 7.4). The intracellular insoluble formazan was dissolved in 100% DMSO. A microplate reader was used to measure the absorbance of each cell line at 570 nm, and the percentage of cell viability was calculated. The absorbance value for the average of wells of cells treated with each test sample concentration was expressed as a percentage of this control and the IC50 values for each sample on each cell line were calculated. The anti-cancer drug oxaloplatin was used as a positive control.

For experiment [2], the system named is MDA-MB-231 (human breast adenocarcinoma). As to the kind of experiment: MTT cytotoxicity assay, MDA-MB-231. Particulars: for IC50: MTT, 24 h treatment, mean ± SD; for Selectivity index MDA-MB-231: ratio of IC50 on MDCK cells to IC50 in MDA-MB-231. As to the method:
as §1

Another experiment has as its system B16F10 (murine melanoma). As to the kind of experiment: MTT cytotoxicity assay, B16F10. Particulars: for IC50: MTT, 24 h treatment, mean ± SD; for Selectivity index B16F10 (column head IC50 (μM)): ratio of IC50 on MDCK cells to IC50 in B16F10. As to the method: as §1
In experiment [3] the test system is SK-MEL-5 (human melanoma). As to the kind of experiment: MTT cytotoxicity assay, SK-MEL-5. Conditions: for IC50: MTT, 24 h treatment, mean ± SD; for Selectivity index SK-MEL-5 (column head IC50 (μM)): ratio of IC50 on MDCK cells to IC50 in SK-MEL-5. As to the method: as §1
For experiment [4], the system named is MDCK (normal kidney epithelial cells). Kind of experiment: MTT cytotoxicity assay, normal cell line MDCK. Conditions: 24 h treatment, mean ± SD. As to the method: as §1

Regarding `COCc1c(O)cc2c(c1O)C(=O)c1ccccc1C2=O` [Compound 5, lucidin-ω-methyl ether], the IC50 is 24.1 ± 1.06 µM in experiment [1] (Homo sapiens, MCF7); 13 ± 0.33 µM in experiment [2] (Homo sapiens, MDA-MB-231); 29.5 ± 2.61 µM with B16F10 (murine melanoma) (Mus musculus, B16-F10); 42.8 ± 1.32 µM in experiment [3] (Homo sapiens, SK-MEL-5); 79.01 ± 0.03 µM in experiment [4] (Canis lupus familiaris, MDCK). The “Selectivity index MCF7 (column head IC50 (μM))” value (shortened to “Selectivity index MCF7”) in experiment [1] is given as 3.28. In addition, the “Selectivity index MDA-MB-231” value in experiment [2] was found to be 6.06. Further, in the experiment with B16F10 (murine melanoma), the “Selectivity index B16F10 (column head IC50 (μM))” value (“Selectivity index B16F10” below) was 2.68. Further, the “Selectivity index SK-MEL-5 (column head IC50 (μM))” value in experiment [3] is listed as 1.85.
In the case of `O=C1[O][Pt]2([NH][C@@H]3CCCC[C@H]3[NH]2)[O]C1=O` [Oxaloplatin, oxaloplatin, reference compound], the IC50 in experiment [1] was 8.59 ± 1.22 µM; in experiment [2] it was 7.95 ± 1.92 µM; in the experiment on B16F10 (murine melanoma) it was 10.5 ± 0.92 µM; in experiment [3], 14.2 ± 1.02 µM; in experiment [4] it was 24 ± 1.04 µM.
Consider `O=C1c2ccccc2C(=O)c2c(O)cc(O)cc21` [Compound 4, xanthopurpurin], for which the half-maximal inhibitory concentration (IC50) in experiment [1] (Homo sapiens, MCF7) worked out at 15.8 ± 1 µM; in experiment [2] (Homo sapiens, MDA-MB-231), 14.7 ± 1.45 µM; in the experiment on B16F10 (murine melanoma) (Mus musculus, B16-F10), 23.7 ± 1.71 µM; in experiment [3] (Homo sapiens, SK-MEL-5), 21.4 ± 0.99 µM; in experiment [4] (Canis lupus familiaris, MDCK), 67.9 ± 1.02 µM.
Consider `Cc1c(O)cc2c(c1O)C(=O)c1ccc(O)cc1C2=O` [Compound 2, 2-methyl-1,3,6-trihydroxy-9,10-anthraquinone], for which the IC50 was determined as 80 ± 1.14 µM in experiment [1] (Homo sapiens, MCF7); 59.22 ± 0.4 µM in experiment [2] (Homo sapiens, MDA-MB-231); 77.88 ± 0.34 µM in the experiment on B16F10 (murine melanoma) (Mus musculus, B16-F10); 46.8 ± 1.39 µM in experiment [3] (Homo sapiens, SK-MEL-5); 168.8 ± 0.61 µM in experiment [4] (Canis lupus familiaris, MDCK). For the same compound, the “Selectivity index MCF7” value in experiment [1] turned out to be 2.11. Moreover, the “Selectivity index MDA-MB-231” value in experiment [2] is on record as 2.85. Also, in the experiment on B16F10 (murine melanoma), the “Selectivity index B16F10” value came to 2.17. Also, the “Selectivity index SK-MEL-5 (column head IC50 (μM))” value in experiment [3] is given as 3.61.
Regarding `CC(=O)OC[C@H]1O[C@@H](Oc2cc3c(c(O)c2C)C(=O)c2ccc(O)cc2C3=O)[C@H](O[C@H]2O[C@@H](C)[C@H](O)[C@@H](O)[C@H]2O)[C@@H](O)[C@@H]1O` [Compound 1, 2-methyl-1,3,6-trihydroxy-9,10-anthraquinone-3-O-(6′-O-acetyl)-α-rhamnosyl(1 → 2)-β-glucoside], the 50% inhibitory concentration (IC50) amounted to 65.5 ± 1.1 µM in experiment [1] (Homo sapiens, MCF7); 49.4 ± 0.78 µM in experiment [2] (Homo sapiens, MDA-MB-231); 48.68 ± 0.1 µM in the experiment on B16F10 (murine melanoma) (Mus musculus, B16-F10); 91 ± 1.88 µM in experiment [3] (Homo sapiens, SK-MEL-5); 192.3 ± 0.49 µM in experiment [4] (Canis lupus familiaris, MDCK). Besides, the “Selectivity index MCF7” value in experiment [1] is 2.94. For the same compound, the “Selectivity index MDA-MB-231” value in experiment [2] is 3.89. For the same compound, the “Selectivity index B16F10” value in the experiment with B16F10 (murine melanoma) worked out at 3.95. The “Selectivity index SK-MEL-5 (column head IC50 (μM))” value in experiment [3] is 2.11.
In the case of `O=C1c2ccccc2C(=O)c2c1ccc(O)c2O` [Compound 3, alizarin], the half-inhibitory concentration (IC50) in experiment [1] (Homo sapiens, MCF7) turned out to be 49.2 ± 0.85 µM; in experiment [2] (Homo sapiens, MDA-MB-231) it was 48.64 ± 0.33 µM; in the experiment on B16F10 (murine melanoma) (Mus musculus, B16-F10), 98.8 ± 2.1 µM; in experiment [3] (Homo sapiens, SK-MEL-5), 53.08 ± 0.3 µM; in experiment [4] (Canis lupus familiaris, MDCK), 199.3 ± 1.88 µM.
